# Source: patent publication US20020137929A1, “1 - (3-heterocyclylphenyl) isothiourea, -isourea, -guanidine and -amidine herbicidal agents” (Intellectual Property Department, BASF Aktiengesellschaft, priority 1998, published 2002)
# Assays:
# ABUTH (Velvetleaf) [1] = assay: Preemergence herbicidal evaluation; assay type: in vivo, Abutilon theophrasti; settings: rated 4-5 weeks after treatment
# How it was run: (§1)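 Rating at 4–5 wk post-spray on a 0–9 visual scale vs control. Application: aqueous acetone, ~0.0156–0.500 kg/ha, to soil surface after seeding, preemergence.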
# CASOB (Sicklepod) = assay: Preemergence herbicidal evaluation; assay type: in vivo, Cassia obtusifolia; settings: rated 4-5 weeks after treatment
# How it was run: as §1
# [2] = test system: CHEAL (Lambsquarters, Common); assay: Postemergence herbicidal evaluation; assay type: in vivo, Chenopodium album; settings: postemergence
# How it was run: (§2)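 Rate range approx. 0.0156–0.500 kg/ha. Foliar application at 40 psi to ~2-week seedlings; surfactant 0.5% TWEEN 20 in 50/50 acetone/water. Evaluation 4–5 wk post-treatment by 0–9 visual injury score, means of replicate tests.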
# [3] = test system: GLXMAW (Soybean, Williams); assay: Preemergence herbicidal evaluation; assay type: in vivo, Glycine max, (L.) Merr. cv Williams; settings: rated 4-5 weeks after treatment
# How it was run: as §1
# ORYSAT (Rice, Tebonnet) = assay: Postemergence herbicidal evaluation; assay type: in vivo, Oryza sativa, (L.) Tebonnet; settings: postemergence
# How it was run: as §2
# ECHCG (Barnyardgrass) [4] = assay: Postemergence herbicidal evaluation; assay type: in vivo, Echinochloa crus-galli; settings: postemergence
# How it was run: as §2
# ZEAMX (Corn, Field) [5] = assay: Preemergence herbicidal evaluation; assay type: in vivo, Zea mays; settings: rated 4-5 weeks after treatment
# How it was run: as §1
# [6] = test system: TRZAWR (Wheat, Winter, cv Riband); assay: Preemergence herbicidal evaluation; assay type: in vivo, Triticum aestivum; settings: rated 4-5 weeks after treatment
# How it was run: as §1
# [7] = test system: IPOHE (Morningglory, Ivyleaf); assay: Postemergence herbicidal evaluation; assay type: in vivo, Ipomoea hederacea; settings: postemergence
# How it was run: as §2
# [8] = test system: CHEAL (Lambsquarters, Common); assay: Preemergence herbicidal evaluation; assay type: in vivo, Chenopodium album; settings: rated 4-5 weeks after treatment
# How it was run: as §1
# SETVI (Foxtail, Green) = assay: Postemergence herbicidal evaluation; assay type: in vivo, Setaria viridis; settings: postemergence
# How it was run: as §2
# [9] = test system: IPOHE (Morningglory, Ivyleaf); assay: Preemergence herbicidal evaluation; assay type: in vivo, Ipomoea hederacea; settings: rated 4-5 weeks after treatment
# How it was run: as §1
# ABUTH (Velvetleaf) [10] = assay: Postemergence herbicidal evaluation; assay type: in vivo, Abutilon theophrasti; settings: postemergence
# How it was run: as §2
# ECHCG (Barnyardgrass) [11] = assay: Preemergence herbicidal evaluation; assay type: in vivo, Echinochloa crus-galli; settings: rated 4-5 weeks after treatment
# How it was run: as §1
# ZEAMX (Corn, Field) [12] = assay: Postemergence herbicidal evaluation; assay type: in vivo, Zea mays; settings: postemergence
# How it was run: as §2
smiles,measurement,setting,value
"CCOC(=O)CN1C(=O)C(C(=O)OC)SC1=Nc1cc(-n2c(=O)cc(C(F)(F)F)n(C)c2=O)c(F)cc1Cl (stereo not drawn) [Compound 128, 5-Carboxy-2-{{2-chloro-5-[3,6-dihydro-3-methyl-2,6-dioxo-4-(trifluoromethyl)-1(2H)-pyrimidinyl]-4-fluorophenyl}imino}-4-oxo-3-thiazolidineacetic acid, 3-ethyl methyl ester]",Preemergence herbicidal rating ABUTH,ABUTH (Velvetleaf) [1]; rate 0.0156 kg/ha,0.0
same,Preemergence herbicidal rating ABUTH,ABUTH (Velvetleaf) [1]; rate 0.0313 kg/ha,0.0
same,Preemergence herbicidal rating ABUTH,ABUTH (Velvetleaf) [1]; rate 0.0625 kg/ha,1.0
same,Preemergence herbicidal rating ABUTH,ABUTH (Velvetleaf) [1]; rate 0.1250 kg/ha,3.0
same,Preemergence herbicidal rating ABUTH,ABUTH (Velvetleaf) [1]; rate 0.2500 kg/ha,9.0
same,Preemergence herbicidal rating CASOB,CASOB (Sicklepod); rate 0.0156 kg/ha,0.0
same,Preemergence herbicidal rating CASOB,CASOB (Sicklepod); rate 0.0313 kg/ha,1.0
same,Preemergence herbicidal rating CASOB,CASOB (Sicklepod); rate 0.0625 kg/ha,1.0
same,Preemergence herbicidal rating CASOB,CASOB (Sicklepod); rate 0.2500 kg/ha,0.0
same,Herbicidal rating CHEAL,[2]; rate 0.0156 kg/ha,4.0
same,Herbicidal rating CHEAL,[2]; rate 0.0313 kg/ha,9.0
same,Herbicidal rating CHEAL,[2]; rate 0.0625 kg/ha,9.0
same,Preemergence herbicidal rating GLXMAW,[3]; rate 0.0156 kg/ha,0.0
same,Preemergence herbicidal rating GLXMAW,[3]; rate 0.0313 kg/ha,0.0
same,Preemergence herbicidal rating GLXMAW,[3]; rate 0.0625 kg/ha,0.0
same,Preemergence herbicidal rating GLXMAW,[3]; rate 0.1250 kg/ha,0.0
same,Preemergence herbicidal rating GLXMAW,[3]; rate 0.2500 kg/ha,0.0
same,Herbicidal rating ORYSAT,"ORYSAT (Rice, Tebonnet); rate 0.0156 kg/ha",1.5
same,Herbicidal rating ORYSAT,"ORYSAT (Rice, Tebonnet); rate 0.0313 kg/ha",2.0
same,Herbicidal rating ORYSAT,"ORYSAT (Rice, Tebonnet); rate 0.0625 kg/ha",2.5
same,Herbicidal rating ECHCG,ECHCG (Barnyardgrass) [4]; rate 0.0156 kg/ha,1.0
same,Herbicidal rating ECHCG,ECHCG (Barnyardgrass) [4]; rate 0.0313 kg/ha,2.0
same,Herbicidal rating ECHCG,ECHCG (Barnyardgrass) [4]; rate 0.0625 kg/ha,1.0
same,Preemergence herbicidal rating ZEAMX,"ZEAMX (Corn, Field) [5]; rate 0.0156 kg/ha",0.0
same,Preemergence herbicidal rating ZEAMX,"ZEAMX (Corn, Field) [5]; rate 0.0313 kg/ha",0.0
same,Preemergence herbicidal rating ZEAMX,"ZEAMX (Corn, Field) [5]; rate 0.0625 kg/ha",0.0
same,Preemergence herbicidal rating ZEAMX,"ZEAMX (Corn, Field) [5]; rate 0.1250 kg/ha",0.0
same,Preemergence herbicidal rating ZEAMX,"ZEAMX (Corn, Field) [5]; rate 0.2500 kg/ha",0.0
same,Preemergence herbicidal rating TRZAWR,[6]; rate 0.0156 kg/ha,0.0
same,Preemergence herbicidal rating TRZAWR,[6]; rate 0.0313 kg/ha,0.0
same,Preemergence herbicidal rating TRZAWR,[6]; rate 0.0625 kg/ha,0.0
same,Preemergence herbicidal rating TRZAWR,[6]; rate 0.1250 kg/ha,0.0
same,Preemergence herbicidal rating TRZAWR,[6]; rate 0.2500 kg/ha,0.0
same,Herbicidal rating IPOHE,[7]; rate 0.0156 kg/ha,9.0
same,Herbicidal rating IPOHE,[7]; rate 0.0313 kg/ha,9.0
same,Herbicidal rating IPOHE,[7]; rate 0.0625 kg/ha,9.0
same,Preemergence herbicidal rating CHEAL,[8]; rate 0.0156 kg/ha,9.0
same,Preemergence herbicidal rating CHEAL,[8]; rate 0.0313 kg/ha,7.0
same,Preemergence herbicidal rating CHEAL,[8]; rate 0.0625 kg/ha,9.0
same,Preemergence herbicidal rating CHEAL,[8]; rate 0.1250 kg/ha,9.0
same,Preemergence herbicidal rating CHEAL,[8]; rate 0.2500 kg/ha,9.0
same,Herbicidal rating SETVI,"SETVI (Foxtail, Green); rate 0.0156 kg/ha",1.0
same,Herbicidal rating SETVI,"SETVI (Foxtail, Green); rate 0.0313 kg/ha",1.0
same,Herbicidal rating SETVI,"SETVI (Foxtail, Green); rate 0.0625 kg/ha",4.0
same,Preemergence herbicidal rating IPOHE,[9]; rate 0.0156 kg/ha,0.0
same,Preemergence herbicidal rating IPOHE,[9]; rate 0.0313 kg/ha,0.0
same,Preemergence herbicidal rating IPOHE,[9]; rate 0.0625 kg/ha,4.0
same,Preemergence herbicidal rating IPOHE,[9]; rate 0.1250 kg/ha,9.0
same,Preemergence herbicidal rating IPOHE,[9]; rate 0.2500 kg/ha,7.0
same,Herbicidal rating ABUTH,ABUTH (Velvetleaf) [10]; rate 0.0156 kg/ha,6.0
same,Herbicidal rating ABUTH,ABUTH (Velvetleaf) [10]; rate 0.0313 kg/ha,9.0
same,Herbicidal rating ABUTH,ABUTH (Velvetleaf) [10]; rate 0.0625 kg/ha,9.0
same,Preemergence herbicidal rating ECHCG,ECHCG (Barnyardgrass) [11]; rate 0.0156 kg/ha,0.0
same,Preemergence herbicidal rating ECHCG,ECHCG (Barnyardgrass) [11]; rate 0.0313 kg/ha,0.0
same,Preemergence herbicidal rating ECHCG,ECHCG (Barnyardgrass) [11]; rate 0.0625 kg/ha,0.0
same,Preemergence herbicidal rating ECHCG,ECHCG (Barnyardgrass) [11]; rate 0.1250 kg/ha,0.0
same,Preemergence herbicidal rating ECHCG,ECHCG (Barnyardgrass) [11]; rate 0.2500 kg/ha,2.0
same,Herbicidal rating ZEAMX,"ZEAMX (Corn, Field) [12]; rate 0.0156 kg/ha",3.5
same,Herbicidal rating ZEAMX,"ZEAMX (Corn, Field) [12]; rate 0.0313 kg/ha",4.0
same,Herbicidal rating ZEAMX,"ZEAMX (Corn, Field) [12]; rate 0.0625 kg/ha",6.0
